# According to patent US10981926B2 (Janssen Pharmaceutica NV, priority 2016, dated 2021):
# Legend:
# Format in all cases: cell-based
# [1] = molecular target: T1, wild-type Androgen Receptor (AR-wt) (Homo sapiens (Human), UniProt P10275); assay: LNCaP-AR-wt AG reporter assay (agonist mode); conditions: agonist mode; for Emax: maximum % stimulation over tested concentration range, read-out: LNCaP-AR-wt AG MAX % Stim; for EC50: pEC50 = −Log10(EC50 in Molar), read-out: LNCaP-AR-wt AG pEC50 (converted)
# [2] = molecular target: T2, F876L mutant Androgen Receptor (AR-F876L) (Homo sapiens (Human), UniProt P10275, F877L); assay: LNCaP-AR-F876L AG reporter assay (agonist mode); conditions: agonist mode; for Emax: maximum % stimulation over tested concentration range, read-out: LNCaP-AR-F876L AG MAX % Stim; for EC50: pEC50 = −Log10(EC50 in Molar), read-out: LNCaP-AR-F876L AG pEC50 (converted)
# [3] = molecular target: T1, wild-type Androgen Receptor (AR-wt); assay: LNCaP-AR-wt ANT reporter assay (antagonist mode); conditions: antagonist mode; for Emax: maximum % inhibition of R1881 control response over tested concentration range, read-out: LNCaP-AR-wt ANT MAX % Inh; for IC50: pIC50 = −Log10(IC50 in Molar), read-out: LNCaP-AR-wt ANT pIC50 (converted)
# [4] = molecular target: T2, F876L mutant Androgen Receptor (AR-F876L); assay: LNCaP-AR-F876L ANT reporter assay (antagonist mode); conditions: antagonist mode; for Emax: maximum % inhibition of R1881 control response over tested concentration range, read-out: LNCaP-AR-F876L ANT MAX % Inh; for IC50: pIC50 = −Log10(IC50 in Molar), read-out: LNCaP-AR-F876L ANT pIC50 (converted)
# T2 sequence (P10275 whole entry F877L): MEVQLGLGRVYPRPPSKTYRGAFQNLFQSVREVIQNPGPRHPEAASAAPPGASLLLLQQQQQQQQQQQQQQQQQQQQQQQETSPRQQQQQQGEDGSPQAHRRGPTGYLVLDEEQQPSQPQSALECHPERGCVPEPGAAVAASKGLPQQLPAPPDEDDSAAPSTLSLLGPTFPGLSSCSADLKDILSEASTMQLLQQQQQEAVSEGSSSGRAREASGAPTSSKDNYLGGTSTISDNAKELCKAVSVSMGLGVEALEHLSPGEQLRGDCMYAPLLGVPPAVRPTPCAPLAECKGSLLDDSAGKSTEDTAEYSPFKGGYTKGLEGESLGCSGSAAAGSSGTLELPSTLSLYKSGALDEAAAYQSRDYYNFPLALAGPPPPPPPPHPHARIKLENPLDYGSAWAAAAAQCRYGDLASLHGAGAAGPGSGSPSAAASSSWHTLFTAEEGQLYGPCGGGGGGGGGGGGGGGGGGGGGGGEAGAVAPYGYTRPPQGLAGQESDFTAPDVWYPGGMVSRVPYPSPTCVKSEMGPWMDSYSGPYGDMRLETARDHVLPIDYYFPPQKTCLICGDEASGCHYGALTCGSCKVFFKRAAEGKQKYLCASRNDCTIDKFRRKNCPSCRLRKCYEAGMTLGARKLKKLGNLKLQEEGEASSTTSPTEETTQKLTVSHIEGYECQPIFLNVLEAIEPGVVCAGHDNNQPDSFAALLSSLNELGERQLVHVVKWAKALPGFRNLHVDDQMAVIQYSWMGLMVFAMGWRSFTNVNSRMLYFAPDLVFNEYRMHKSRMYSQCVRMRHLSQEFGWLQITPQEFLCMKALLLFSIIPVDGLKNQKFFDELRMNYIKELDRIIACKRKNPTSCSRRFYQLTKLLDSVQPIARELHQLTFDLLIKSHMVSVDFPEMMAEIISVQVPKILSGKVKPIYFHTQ
# T1 sequence (P10275 whole entry): as the sequence (P10275 whole entry F877L) above, with L877F counted along it
Emax [1] [%],EC50 [1] [nM],Emax [2] [%],EC50 [2] [nM],Emax [3] [%],IC50 [3] [nM],Emax [4] [%],IC50 [4] [nM],SMILES
0.4,> 15100,0.1,> 15100,102,372,100,355,"N#Cc1ncc(N2C(=O)C3(CCC3)N(c3ccc(CN4CCOCC4)cc3)C2=S)cc1C(F)(F)F [Cpd 217, 5-[8-[4-(morpholinomethyl)phenyl]-5-oxo-7-thioxo-6,8-diazaspiro[3.4]octan-6-yl]-3-(trifluoromethyl)pyridine-2-carbonitrile]"
0.1,> 15100,0.1,> 15100,102,741,101,589,"N#Cc1ncc(N2C(=O)C3(CCC3)N(c3ccc(CN4CCN(C5CC5)CC4)cc3)C2=S)cc1C(F)(F)F [Cpd 220, 5-[8-[4-[(4-cyclopropylpiperazin-1-yl)methyl]phenyl]-5-oxo-7-thioxo-6,8-diazaspiro[3.4]octan-6-yl]-3-(trifluoromethyl)pyridine-2-carbonitrile]"
0,> 15100,0.1,> 15100,101,1780,100,1480,"N#Cc1ncc(N2C(=O)C3(CCC3)N(c3ccc(CN4CCC(N)CC4)cc3)C2=S)cc1C(F)(F)F [Cpd 224, 5-[8-[4-[(4-amino-1-piperidyl)methyl]phenyl]-5-oxo-7-thioxo-6,8-diazaspiro[3.4]octan-6-yl]-3-(trifluoromethyl)pyridine-2-carbonitrile]"
-0.2,> 15100,0.1,> 15100,102,513,100,417,"N#Cc1ncc(N2C(=O)C3(CCC3)N(c3ccc(CN4CCN(CCO)CC4)cc3)C2=S)cc1C(F)(F)F [Cpd 227, 5-[8-[4-[[4-(2-hydroxyethyl)piperazin-1-yl]methyl]phenyl]-5-oxo-7-thioxo-6,8-diazaspiro[3.4]octan-6-yl]-3-(trifluoromethyl)pyridine-2-carbonitrile]"
-0.2,> 15100,0.1,> 15100,102,209,101,115,"N#Cc1ncc(N2C(=O)C3(CCC3)N(c3ccc(CN4CCNC(=O)C4)cc3)C2=S)cc1C(F)(F)F [Cpd 228, 5-[5-oxo-8-[4-[(3-oxopiperazin-1-yl)methyl]phenyl]-7-thioxo-6,8-diazaspiro[3.4]octan-6-yl]-3-(trifluoromethyl)pyridine-2-carbonitrile]"

# Second part, the compound before the results:
SMILES,Emax [1] [%],EC50 [1] [nM],Emax [2] [%],EC50 [2] [nM],Emax [3] [%],IC50 [3] [nM],Emax [4] [%],IC50 [4] [nM]
"COc1cc(N2C(=O)C3(CCC3)N(c3ccc4c(cnn4C4CCN(C(C)=O)CC4)c3)C2=S)cnc1C#N [Cpd 212, 5-[8-[1-(1-acetyl-4-piperidyl)indazol-5-yl]-5-oxo-7-thioxo-6,8-diazaspiro[3.4]octan-6-yl]-3-methoxy-pyridine-2-carbonitrile]",0.2,> 15100,1.5,> 15100,102,135,96.1,331
"COc1cc(N2C(=O)C3(CCC3)N(c3ccc4c(cnn4C4CCN(C)CC4)c3)C2=S)cnc1C#N [Cpd 213, 3-methoxy-5-[8-[1-(1-methyl-4-piperidyl)indazol-5-yl]-5-oxo-7-thioxo-6,8-diazaspiro[3.4]octan-6-yl]pyridine-2-carbonitrile]",0.2,> 15100,0.1,> 15100,102,550,100,282
"COc1cc(N2C(=O)C3(CCC3)N(c3ccc4nn(C5CCNCC5)cc4c3)C2=S)cnc1C#N [Cpd 214, 3-methoxy-5-[5-oxo-8-[2-(4-piperidyl)indazol-5-yl]-7-thioxo-6,8-diazaspiro[3.4]octan-6-yl]pyridine-2-carbonitrile]",0.3,> 15100,0,> 15100,100,288,99.9,219
"COc1cc(N2C(=O)C3(CCC3)N(c3ccc4nn(C5CCN(C)CC5)cc4c3)C2=S)cnc1C#N [Cpd 215, 3-methoxy-5-[8-[2-(1-methyl-4-piperidyl)indazol-5-yl]-5-oxo-7-thioxo-6,8-diazaspiro[3.4]octan-6-yl]pyridine-2-carbonitrile]",0,> 15100,0.1,> 15100,101,347,101,240
"CN1CC(CNC(=O)c2ccc(N3C(=S)N(c4cnc(C#N)c(C(F)(F)F)c4)C(=O)C34CCC4)cc2)C1 [Cpd 216, 4-[6-[6-cyano-5-(trifluoromethyl)-3-pyridyl]-5-oxo-7-thioxo-6,8-diazaspiro[3.4]octan-8-yl]-N-[(1-methylazetidin-3-yl)methyl]benzamide]",0.1,> 15100,0,> 15100,98.8,1620,98.7,1480
"CN1CC[C@H](CNC(=O)c2ccc(N3C(=S)N(c4cnc(C#N)c(C(F)(F)F)c4)C(=O)C34CCC4)cc2F)C1 [Cpd 218, 4-[6-[6-cyano-5-(trifluoromethyl)-3-pyridyl]-5-oxo-7-thioxo-6,8-diazaspiro[3.4]octan-8-yl]-2-fluoro-N-[[(3R)-1-methylpyrrolidin-3-yl]methyl]benzamide]",0,> 15100,0.1,> 15100,102,1170,99.6,912
"CN1CCN(Cc2ccc(N3C(=S)N(c4cnc(C#N)c(Cl)c4)C(=O)C34CCC4)cc2)CC1 [Cpd 219, 3-chloro-5-[8-[4-[(4-methylpiperazin-1-yl)methyl]phenyl]-5-oxo-7-thioxo-6,8-diazaspiro[3 4]octan-6-yl]pyridine-2-carbonitrile]",0.3,> 15100,0.2,> 15100,102,372,101,347
"N#Cc1ncc(N2C(=O)C3(CCC3)N(c3ccc(C(=O)NCC4CCNCC4)c(F)c3)C2=S)cc1C(F)(F)F [Cpd 221, 4-[6-[6-cyano-5-(trifluoromethyl)-3-pyridyl]-5-oxo-7-thioxo-6,8-diazaspiro[3.4]octan-8-yl]-2-fluoro-N-(4-piperidylmethyl)benzamide]",-0.1,> 15100,0.1,> 15100,101,891,100,589
"Cc1cc(N2C(=O)C3(CCC3)N(c3ccc(CC4CCNCC4)cc3)C2=S)cnc1C#N [Cpd 235, 3-methyl-5-[5-oxo-8-[4-(4-piperidylmethyl)phenyl]-7-thioxo-6,8-diazaspiro[3 4]octan-6-yl]pyridine-2-carbonitrile]",0.2,> 15100,0.1,> 15100,101,1070,101,562
